Measurements reported in patent US20110033883A1, “IMAGING DYES AND USE THEREOF” (priority 2007, published 2011).
Ru(bpy)2(pic) = [Ru(bpy)2(piCH2)]2+ complex, attached to the peptide through a hexyl spacer; Ahx = NCCCCCC(=O)O

Columns and labels:
[1] = pH dependence of resonance Raman peak ratios; assay type: physicochemical; conditions: ratio of peaks at 1575 and 1317 cm^-1, 458 nm excitation
Protocol: (§1) Resonance Raman spectroscopy was performed on a Horiba Jobin Yvon HR800UV confocal microscope using an Argon ion Laser (458 nm or 514 nm) or a Helium-Neon (HeNe) laser (633 nm) as the exciting wavelength. Ten spectral acquisitions were accumulated and each acquisition was two seconds in length. Steady-state emission spectra were recorded on a Cary Eclipse Fluorescence spectrophotometer, and luminescence lifetimes were obtained using a Picoquant Fluotime 100 TCSPC system exciting at 470 nm and detecting at 600 nm using a narrow band pass dielectric filter. Quantum yields were measured using the comparative method described by Williams et al. In quenching studies, the luminophore/quencher concentrations were corrected for dilution.
To evaluate the pH dependence of the resonance Raman data peak ratios were calculated with Labspec5 software. A baseline was drawn along the base of the peak and the area was calculated. Regions for the peaks were 1700 to 1400 cm^−1. The ratio of the peaks for the different protonation states […] 5 replica measurements were recorded for each pH and averaged.
As the pH changes, the pic moiety can be protonated or deprotonated, while the bpy moieties should stay mainly unaffected by changes in pH. […]

[2] = pH titration, ground-state pKa (UV/vis absorption, Henderson-Hasselbalch fit); assay type: physicochemical
Protocol: ^1H NMR spectra were recorded on a Bruker Advance series 400 MHz NMR spectrometer. The NMR titration experiments were performed following a previously published protocol (Charbonnier and Penades). Mass spectra were acquired using a positive ion mode on a Bruker LC/MS Esquire. Electronic absorption spectra were measured on a Shimadzu 3500 UV-VIS/NIR spectrophotometer. Cyclic voltammetry was carried out using a CH Instruments CH602 electrochemical workstation. A conventional three-electrode cell was used, employing glassy carbon as working, Ag/AgCl as reference or Ag/AgNO3 in acetonitrile, and Pt wire as counter electrodes. Electrochemistry was conducted in water and acetonitrile respectively with 0.1 M phosphate buffer or tetrabutylammonium tetrafluoroborate (TBABF4) as supporting electrolyte under an N2 atmosphere. pH titrations were performed in the pH range 0.5-12. The pH was adjusted by adding aqueous solutions of NaOH or HClO4.
(§2) The pH was adjusted with H2SO4 (Sigma-Aldrich) and KOH (Sigma-Aldrich) and measured with a pH meter. UV/vis absorption spectra during the pH titration experiment were corrected for change in volume.
UV/vis absorption titration curves were fitted with a modified Henderson-Hasselbalch equation which was obtained using Beer-Lambert's law to express the concentration, FIG. 2(b) For fitting the fluorescence titration curve it was assumed that the average lifetime goes linear with the ratio of the two species in equilibrium at the certain pH.
At a shorter wavelength the ππ* transitions centred at the ligands are found: around 350 nm the ππ* transition at the pic ligand, and around 280 nm at the bipyridine ligands. […] The increasing absorption with increasing pH at 350 nm is plotted in FIG. 13B. Fitting this curve with a modified Henderson-Hasselbalch equation results in a pKa1 of 1.72±0.07 and pKa2 of 8.16±0.03. As expected the pH dependence of the other bands is rather minor.

human blood platelets [3] = experiment: Photobleaching under continuous irradiation at 458 nm of dye-labelled human blood platelets; assay type: cell-based; conditions: identical conditions
From the text: Some of the advantages associated with the invention may include: • The dye conjugates described are long-lived and environmentally sensitive. The sensitivity of the dye conjugates can be tailored, e.g. to oxygen partial pressure, pH, water content etc., by altering the ligands and/or the metal ion of the dye conjugate. • Photobleaching: bleaching experiments, for example the data presented in FIG. 10, are a measure of the photostability of the dye conjugate under the types of continuous irradiation required for imaging. […] For example a ruthenium-polypyridyl complex covalently bound to an octa arginine peptide required approximately 20 minutes continuous irradiation for the dye to bleach to 50% of its initial intensity. […] The dye conjugates described herein provide a much greater acquisition time which is a significant advantage to the microscopist/microbiologist. • The synthetic yields for coupling of the Rupic unit to amine functionalities are high. The dye conjugates are functionalised with a single, accessible group, allowing unequivocal reaction with nucleophilic functions on peptides or proteins. […] The dye conjugates are easily synthetically modified to change colour, lifetime, and environmental sensitivity and are highly resistant to photobleaching.
FIG. 10 is a graph showing a photobleaching experiment. […]

[4] = tested on: Sp2/0-Ag 14 myeloma cells; experiment: Sytox green counterstain for cell viability; assay type: cell-based, mouse; conditions: over 2 hours
Protocol: (§3) Sp2/0-Ag 14 myeloma cells (ATCC number CRL-1581™) were obtained from the ATCC Cell Biology Collection (United Kingdom). Cells were grown in Dulbecco's modified Eagle's medium (Sigma-Aldrich) supplemented with 10% foetal calf serum (Gibco Invitrogen) and 1% L-glutamine (Gibco Invitrogen) at 37° C. and 5% CO2. Cells were harvested after growing for 2 days. The viability was ensured by testing them in a trypan blue assay. In a usual sample less than 1% of the cells were dead. The growth medium was removed by centrifuging the cells at 2000 rpm for 2 min in an Eppendorff centrifuge, washed twice and resuspended in PBS buffer.
To identify where the Ru dye [Ru(bpy)2(PIC-arg8)]^2+ is localizing inside the cell, cells were counterstained with two commercial dyes. […] Both dyes can be excited with the 458 nm line of an argon ion laser used for excitation of the [Ru(bpy)2(pic-R8)]^n+ dye, however, their fluorescence is in the green (around 500 nm), and therefore could be easily spectrally separated from the fluorescence of the Ru complex. […]
The luminescence images of myeloma cells were recorded with a Zeiss LSM510 Meta confocal microscope, using a 63× oil immersion objective (NA 1.4). […] The luminescence from the Ru complexes was collected using a longpass filter at 560 nm. […]

[5] = Oxygen quenching of luminescence (Stern-Volmer); assay type: physicochemical
Protocol: Different oxygen concentrations were adjusted by streaming various O2—N2-mixtures through the solution until equilibrium was reached. The oxygen concentration was measured with an optical O2 electrode (Visiferm DO120, Hamilton). The fluorescence lifetime of the equilibrated dye solutions was measured in a closed-system flow cell.
In air saturated PBS solutions the lifetime drops down to 540 ns when the pic ligand is neutral, and even down to 350 ns, when the pic moiety is deprotonated. Stern-Volmer plots are linear up to air saturated solutions and then start levelling of. The Stern-Volmer quenching constants range actually vary very little with pH 2100 M^−1 for pH 10 to around 2900 M^−1 when the pic moiety is in its neutral state. The corresponding bimolecular rate constants vary between around […] when the pic moiety is deprotonated to […] when the pic moiety is in its neutral state, which is essentially the same within experimental error. This means that within the limited range of the cellular environment the O2 concentration within a cell can be assessed independently of pH using this dye.

[6] = tested on: mouse SP2/0 myeloma cells; experiment: Resonance Raman mapping of myeloma cells; assay type: cell-based
Protocol: as §1
For the fluorescence and fluorescence lifetime experiments 100 μl aliquots were used and incubated with the 3 μl of the Ru-octopeptide (1.2 mM), resulting in a final dye concentration of 3.5×10^−5 M. If only resonance Raman experiments were performed, the cells were incubated in the medium with dye for 15 minutes prior to the washing step.
The resonance Raman maps of the stained myeloma cells were analyzed using the modelling option implemented in the LabSpec software. A model with 4 components was creating, grouping together similar spectra in one component (background, where there is no dye/no cell, outer cell (membrane), cytoplasm and nucleus). […]

[7] = Luminescence intensity as a function of pH, excited state pKa; assay type: physicochemical; conditions: excitation at isosbestic point, luminescence intensity vs pH
Protocol: as §1, §2
The luminescence wavelength and its intensity are pH dependent. While the emission maximum at pH 7 is at 608 nm, it shifts to higher wavelength with increasing and decreasing pH (λmax (pH 1.3)=623 nm; λmax (pH 11)=616 nm). When the pic ligand is in its neutral state, the luminescence is very bright (Φ=0.06), about 30% more intense than the one of [Ru(bpy)3]^2+. […]

[8] = tested on: Sp2/0-Ag 14 myeloma cells; experiment: Confocal luminescence imaging, incorporation and localization in myeloma cells (DiOC6(3) counterstain); assay type: cell-based, mouse
Protocol: as §3
To identify where the Ru dye [Ru(bpy)2(PIC-arg8)]^2+ is localizing inside the cell, cells were counterstained with two commercial dyes. Sytox green (Invitrogen) which localizes inside the nucleus; and DiOC6(3) (3,3′-dihexyloxacarbocyanine iodide, Invitrogen) which selectively stains mitochondria and at higher concentration other internal membranes, such as the endoplasmatic reticulum, of living cells. Both dyes can be excited with the 458 nm line of an argon ion laser used for excitation of the [Ru(bpy)2(pic-R8)]^n+ dye, however, their fluorescence is in the green (around 500 nm), and therefore could be easily spectrally separated from the fluorescence of the Ru complex. […]
For the fluorescence and fluorescence lifetime experiments 100 μl aliquots of washed myeloma cells were resuspended in PBS buffer (pH 7.4) and incubated with the 3 μl of the Ru-octopeptide (1.2 mM), resulting in a final dye concentration of 3.5×10^−5 M.
The luminescence images of myeloma cells were recorded with a Zeiss LSM510 Meta confocal microscope, using a 63× oil immersion objective (NA 1.4). […] The luminescence from the Ru complexes was collected using a longpass filter at 560 nm. When Sytox green and/or DiOC6(3) were localised in the same cell, the luminescence from the Ru-dye was collected behind a 615 nm longpass filter, while the Sytox green and DiOC6(3) fluorescence was collected with a 465-510 nm bandpass filter in another channel, or by using the meta option of the instrument.

human blood platelets [9] = experiment: Fluorescence microscopy of human blood platelets incubated with dye conjugates; assay type: cell-based
Protocol: Human Blood Platelets were supplied by Niamh Moran and Dermot Kenny and prepared as described Moran et al.
Fluorescence microscopy was performed on human blood platelets incubated in the presence of Ru-Ahx-R5 and Ru-Ahx-R8. […] The process is largely irreversible, removing and washing cells, and resuspending in buffer results in less than 20% loss of emission intensity from the cell. The fluorescence microscopy pictures show intense, long-lived luminescence originating from the platelet; the wavelength of which (around 620 nm) can be assigned to the Ruthenium centres.

[10] = tested on: bovine aortic epithelial (BAE) cells; experiment: Confocal luminescence imaging of bovine aortic epithelial (BAE) cells; assay type: cell-based; conditions: BAE cells in PBS buffer, 22° C., excitation 458 nm
Protocol: Bovine aortic endothelium cells were supplied by Dr PM Cummins and cultured as described in Colgon et al.
Here it has been used to image emission spectrum (left) and a confocal image at a excitation wavelength of 458 nm (right) of bovine aortic epithelial (BAE) cells. The dyes were incubated at 22° C. with BAE cells in PBS buffer.

[11] = absorption at 350 nm vs pH, modified Henderson-Hasselbalch fit

[Ru(bpy)2(PicH2)](PF6)2 [[Ru-LH]^2+]
pKa from ratio of resonance Raman peaks [1]: 8.5±0.2
pKa of ionisable site at the imidazole (higher) [2]: 8.5
pKa of ionisable site at the imidazole (lower) [2]: 1.6

[Ru(bpy)2(PicH-R8)]^n+: ruthenium centre with two bipyridine ligands and one picH ligand; octaarginine coupled to pic carboxy end via Ahx spacer, amide linkage ({(Ru(bpy)2(picH))-Ahx}-RRRRRRRR-NH2; also: Ru(bpy)2 picH ruthenium complex attached via Ahx spacer)
continuous irradiation time for the dye to bleach to 50% of its initial intensity (human blood platelets [3]): approximately 20 minutes
cell viability (Sytox green exclusion) [4]: did not kill the cells
bimolecular rate constant of oxygen quenching ([5]; pic moiety deprotonated): around 3.6×10^−9 M^−1 s^−1
bimolecular rate constant of oxygen quenching ([5]; pic moiety in its neutral state): 3e-09 M⁻¹ s⁻¹
distribution of the dye inside the cell (Raman map, band at 1487 cm^−1) ([6]; myeloma cell incubated for 15 min): distributed throughout the cytoplasm, with less dye in the nucleus
excited state pKa2* [7]: 8.1±0.2
incubation time after which dye localises in the nucleus [8]: > 40 min
time until penetration into the cells is complete ([8]; 3.5×10^−5 M dye): 15 to 20 min
preference for mitochondria (DiOC6(3) counterstain) ([8]; 20 mins incubation): no special preferences for mitochondria
loss of emission intensity from the cell after removing, washing and resuspending in buffer (human blood platelets [9]): less than 20%
transport across the platelet membrane (human blood platelets [9]; fluorescence microscopy): transported through the cells membrane to accumulate intracellularly
pKa1 [2, 11]: 1.72±0.07
pKa2 [2, 11]: 8.16±0.03

[Ru(bpy)2(pic-KVG)]^n+: [Ru(bpy)2(piCH2)]^2+ attached through a hexyl spacer to KVGFFKR-NH2 (SEQ ID No. 20) ({Ru(bpy)2(pic)-Ahx}-KVGFFKR-NH2; also: ruthenium complex, charge n+)
localisation of the dye in the cells (luminescence image) [10]: concentrates in the membrane

[Ru(dppz)2(PicH2)]ClO4 [[Ru(dppz)2PICH2]^2+]
entry into the cell (resonance Raman imaging) ([6]; mouse SP2/0 myeloma cells, pH 7.4 PBS, cells washed): only interacted with the membrane but did not cross it
